Reference: the kinase profiling compilation of Christmann-Franck et al. (2016)

Key:
Test in all cases: radiometric filter-binding kinase assay
PRKCA (human) = PRKCA (human) (UniProt P17252); conditions: compound 1.0 µM; ATP 20 µM
MAPK11 (human) = MAPK11 (human) (UniProt Q15759); conditions: compound 1.0 µM; ATP 20 µM
GSK3B (human) = GSK3B (human) (UniProt P49841); conditions: compound 1.0 µM; ATP 5 µM
ROCK2 (human) = ROCK2 (human) (UniProt O75116); conditions: compound 1.0 µM; ATP 20 µM
AKT2 (human) = AKT2 (human) (UniProt P31751); conditions: compound 1.0 µM; ATP 50 µM
RPS6KA5 KD1 KD2 (human) = RPS6KA5 KD1 KD2 (human) (UniProt O75582); conditions: compound 1.0 µM; ATP 20 µM
NEK7 (human) = NEK7 (human) (UniProt Q8TDX7); conditions: compound 1.0 µM; ATP 20 µM
PAK7 (human) = PAK7 (human) (UniProt Q9P286); conditions: compound 1.0 µM; ATP 20 µM
CSNK1D (human) = CSNK1D (human) (UniProt P48730); conditions: compound 1.0 µM; ATP 20 µM
CHEK2 (human) = CHEK2 (human) (UniProt O96017); conditions: compound 1.0 µM; ATP 20 µM
AURKB (human) = AURKB (human) (UniProt Q96GD4); conditions: compound 1.0 µM; ATP 20 µM
MAPKAPK2 (human) = MAPKAPK2 (human) (UniProt P49137); conditions: compound 1.0 µM; ATP 20 µM
MAPK12 (human) = MAPK12 (human) (UniProt P53778); conditions: compound 1.0 µM; ATP 5 µM
RPS6KA1 KD1 KD2 (human) = RPS6KA1 KD1 KD2 (human) (UniProt Q15418); conditions: compound 1.0 µM; ATP 50 µM
MKNK1 (human) = MKNK1 (human) (UniProt Q9BUB5); conditions: compound 1.0 µM; ATP 50 µM
CDK2 CCNA2 (human) = CDK2 CCNA2 (human) (UniProt P24941+P20248); conditions: compound 1.0 µM; ATP 20 µM
CaMK1 (human) = CaMK1 (human) (UniProt Q14012); conditions: compound 1.0 µM; ATP 50 µM
MAPKAPK5 (human) = MAPKAPK5 (human) (UniProt Q8IW41); conditions: compound 1.0 µM; ATP 20 µM
[1] = tested on: AKT1 (human), P31749 [S473D]; conditions: compound 1.0 µM; ATP 5 µM
MAPK14 (human) = MAPK14 (human) (UniProt Q16539); conditions: compound 1.0 µM; ATP 50 µM
MELK (human) = MELK (human) (UniProt Q14680); conditions: compound 1.0 µM; ATP 50 µM
IKBKB (human) = IKBKB (human) (UniProt O14920); conditions: compound 1.0 µM; ATP 5 µM
MAPK9 (human) = MAPK9 (human) (UniProt P45984); conditions: compound 1.0 µM; ATP 20 µM
PIM1 (human) = PIM1 (human) (UniProt P11309); conditions: compound 1.0 µM; ATP 20 µM
RPS6KA3 KD1 KD2 (human) = RPS6KA3 KD1 KD2 (human) (UniProt P51812); conditions: compound 1.0 µM; ATP 50 µM
CSK (human) = CSK (human) (UniProt P41240); conditions: compound 1.0 µM; ATP 20 µM
[2] = tested on: RPS6KB1 (human), P23443 [T412E]; conditions: compound 1.0 µM; ATP 20 µM
MAPK3 (human) = MAPK3 (human) (UniProt P27361); conditions: compound 1.0 µM; ATP 5 µM
MAPK15 (human) = MAPK15 (human) (UniProt Q8TD08); conditions: compound 1.0 µM; ATP 5 µM
SRPK1 (human) = SRPK1 (human) (UniProt Q96SB4); conditions: compound 1.0 µM; ATP 50 µM
PIM2 (human) = PIM2 (human) (UniProt Q9P1W9); conditions: compound 1.0 µM; ATP 5 µM
BRSK2 (human) = BRSK2 (human) (UniProt Q8IWQ3); conditions: compound 1.0 µM; ATP 50 µM
DYRK1A (human) = DYRK1A (human) (UniProt Q13627); conditions: compound 1.0 µM; ATP 50 µM
PIM3 (human) = PIM3 (human) (UniProt Q86V86); conditions: compound 1.0 µM; ATP 20 µM
PRKAA1 or PRKAA2 (rat) = conditions: compound 1.0 µM; accession and sequence are those of the human protein
PLK1 (human) = PLK1 (human) (UniProt P53350); conditions: compound 1.0 µM; ATP 5 µM
PAK6 (human) = PAK6 (human) (UniProt Q9NQU5); conditions: compound 1.0 µM; ATP 20 µM
[3] = tested on: SGK1 (human), O00141 [S422D]; conditions: compound 1.0 µM; ATP 20 µM
PRKCG (human) = PRKCG (human) (UniProt P05129); conditions: compound 1.0 µM; ATP 5 µM
HIPK2 (human) = HIPK2 (human) (UniProt Q9H2X6); conditions: compound 1.0 µM; ATP 5 µM

Sequence of CDK2 CCNA2 (human) (P20248 whole entry, looked up, other chains not shown): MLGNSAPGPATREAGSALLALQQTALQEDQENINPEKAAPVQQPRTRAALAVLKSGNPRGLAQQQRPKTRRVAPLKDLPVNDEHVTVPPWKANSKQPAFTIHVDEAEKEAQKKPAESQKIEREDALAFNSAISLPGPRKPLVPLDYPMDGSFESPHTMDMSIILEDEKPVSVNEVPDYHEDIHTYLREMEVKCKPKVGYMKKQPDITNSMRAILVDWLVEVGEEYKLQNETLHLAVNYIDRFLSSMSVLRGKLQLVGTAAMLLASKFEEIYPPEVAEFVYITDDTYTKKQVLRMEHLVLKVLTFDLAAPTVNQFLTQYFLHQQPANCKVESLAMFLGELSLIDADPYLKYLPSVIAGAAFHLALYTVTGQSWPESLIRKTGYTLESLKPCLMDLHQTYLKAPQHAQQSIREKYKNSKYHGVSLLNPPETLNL
Sequence of MAPK15 (human) (Q8TD08 whole entry, looked up): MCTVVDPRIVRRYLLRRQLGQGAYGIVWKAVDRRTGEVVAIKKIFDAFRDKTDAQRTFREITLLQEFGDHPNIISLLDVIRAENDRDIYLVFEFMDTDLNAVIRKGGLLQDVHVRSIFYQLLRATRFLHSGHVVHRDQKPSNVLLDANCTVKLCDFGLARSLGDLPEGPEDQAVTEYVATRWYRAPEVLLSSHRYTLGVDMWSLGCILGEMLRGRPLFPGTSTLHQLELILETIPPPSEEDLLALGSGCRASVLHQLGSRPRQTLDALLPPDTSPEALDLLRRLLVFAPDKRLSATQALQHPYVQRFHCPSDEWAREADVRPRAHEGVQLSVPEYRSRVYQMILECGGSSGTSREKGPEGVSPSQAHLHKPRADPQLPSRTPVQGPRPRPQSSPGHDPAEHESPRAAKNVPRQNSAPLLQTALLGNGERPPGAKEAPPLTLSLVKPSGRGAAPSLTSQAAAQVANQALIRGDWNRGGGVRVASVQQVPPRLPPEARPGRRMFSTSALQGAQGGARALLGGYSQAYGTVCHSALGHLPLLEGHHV
Sequence of SRPK1 (human) (Q96SB4 whole entry, looked up): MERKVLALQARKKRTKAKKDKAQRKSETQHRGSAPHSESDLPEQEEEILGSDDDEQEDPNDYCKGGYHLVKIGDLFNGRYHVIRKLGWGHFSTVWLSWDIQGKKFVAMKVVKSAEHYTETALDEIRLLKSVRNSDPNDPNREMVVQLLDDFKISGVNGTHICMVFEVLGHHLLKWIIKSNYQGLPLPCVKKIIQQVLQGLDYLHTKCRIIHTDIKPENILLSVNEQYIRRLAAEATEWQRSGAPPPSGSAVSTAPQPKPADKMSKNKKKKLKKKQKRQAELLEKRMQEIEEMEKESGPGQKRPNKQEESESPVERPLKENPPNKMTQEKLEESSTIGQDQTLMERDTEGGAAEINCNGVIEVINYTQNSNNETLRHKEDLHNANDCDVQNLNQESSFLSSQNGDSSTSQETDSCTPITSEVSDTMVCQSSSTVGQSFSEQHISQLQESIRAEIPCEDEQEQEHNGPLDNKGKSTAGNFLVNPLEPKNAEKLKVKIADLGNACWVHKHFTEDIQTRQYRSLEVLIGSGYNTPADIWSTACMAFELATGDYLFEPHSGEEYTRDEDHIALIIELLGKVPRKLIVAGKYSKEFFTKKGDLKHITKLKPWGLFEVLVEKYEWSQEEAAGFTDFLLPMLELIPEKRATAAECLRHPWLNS
Sequence of MAPK11 (human) (Q15759 whole entry, looked up): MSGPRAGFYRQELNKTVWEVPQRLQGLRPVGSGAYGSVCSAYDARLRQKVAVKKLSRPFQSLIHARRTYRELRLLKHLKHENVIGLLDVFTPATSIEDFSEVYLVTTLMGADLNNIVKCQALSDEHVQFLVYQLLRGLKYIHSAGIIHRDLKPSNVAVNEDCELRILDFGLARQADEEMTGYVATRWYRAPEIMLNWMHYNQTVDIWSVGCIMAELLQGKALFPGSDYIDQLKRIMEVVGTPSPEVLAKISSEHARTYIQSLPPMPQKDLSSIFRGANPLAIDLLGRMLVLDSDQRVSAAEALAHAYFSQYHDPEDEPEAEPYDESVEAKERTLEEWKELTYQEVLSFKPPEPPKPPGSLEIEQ
Sequence of MAPK12 (human) (P53778 whole entry, looked up): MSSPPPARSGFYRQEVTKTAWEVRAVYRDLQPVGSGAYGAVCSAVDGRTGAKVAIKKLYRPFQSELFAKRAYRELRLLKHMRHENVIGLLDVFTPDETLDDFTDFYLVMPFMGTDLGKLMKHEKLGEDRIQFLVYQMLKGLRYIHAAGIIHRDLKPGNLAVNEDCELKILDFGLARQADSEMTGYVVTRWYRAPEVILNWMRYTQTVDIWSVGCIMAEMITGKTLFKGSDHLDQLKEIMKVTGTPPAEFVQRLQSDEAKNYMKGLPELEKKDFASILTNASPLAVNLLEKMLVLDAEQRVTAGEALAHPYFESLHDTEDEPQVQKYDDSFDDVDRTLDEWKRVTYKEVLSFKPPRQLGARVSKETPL
Sequence of RPS6KA5 KD1 KD2 (human) (O75582 whole entry, looked up): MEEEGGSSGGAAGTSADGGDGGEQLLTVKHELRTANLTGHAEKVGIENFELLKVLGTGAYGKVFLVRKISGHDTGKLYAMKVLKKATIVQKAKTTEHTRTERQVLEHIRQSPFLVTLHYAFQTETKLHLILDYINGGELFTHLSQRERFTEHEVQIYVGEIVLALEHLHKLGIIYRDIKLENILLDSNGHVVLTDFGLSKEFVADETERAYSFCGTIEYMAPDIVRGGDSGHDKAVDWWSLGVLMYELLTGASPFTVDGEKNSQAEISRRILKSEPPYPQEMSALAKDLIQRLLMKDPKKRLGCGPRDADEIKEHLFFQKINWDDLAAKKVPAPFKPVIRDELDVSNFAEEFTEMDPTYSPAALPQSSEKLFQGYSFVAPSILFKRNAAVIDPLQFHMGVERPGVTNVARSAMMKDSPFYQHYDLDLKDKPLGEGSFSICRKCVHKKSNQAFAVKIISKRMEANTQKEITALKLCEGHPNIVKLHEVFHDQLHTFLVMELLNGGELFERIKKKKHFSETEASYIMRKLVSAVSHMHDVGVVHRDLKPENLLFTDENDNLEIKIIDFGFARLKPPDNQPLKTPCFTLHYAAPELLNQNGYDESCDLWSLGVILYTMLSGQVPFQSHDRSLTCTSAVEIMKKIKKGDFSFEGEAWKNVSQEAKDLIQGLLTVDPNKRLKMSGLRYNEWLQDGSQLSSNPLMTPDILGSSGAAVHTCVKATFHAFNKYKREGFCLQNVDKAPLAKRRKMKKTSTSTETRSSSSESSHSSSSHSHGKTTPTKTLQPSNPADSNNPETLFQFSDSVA
Sequence of MAPK14 (human) (Q16539 whole entry, looked up): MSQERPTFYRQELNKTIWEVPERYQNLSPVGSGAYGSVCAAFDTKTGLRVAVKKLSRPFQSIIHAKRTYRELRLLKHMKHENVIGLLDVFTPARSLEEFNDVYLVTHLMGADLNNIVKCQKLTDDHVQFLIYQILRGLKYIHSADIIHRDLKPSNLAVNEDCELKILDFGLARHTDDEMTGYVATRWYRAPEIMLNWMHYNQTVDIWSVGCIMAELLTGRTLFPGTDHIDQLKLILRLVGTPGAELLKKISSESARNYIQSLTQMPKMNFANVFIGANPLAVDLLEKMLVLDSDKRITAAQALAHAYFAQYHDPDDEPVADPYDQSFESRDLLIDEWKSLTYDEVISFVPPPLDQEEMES
Sequence of AKT2 (human) (P31751 whole entry, looked up): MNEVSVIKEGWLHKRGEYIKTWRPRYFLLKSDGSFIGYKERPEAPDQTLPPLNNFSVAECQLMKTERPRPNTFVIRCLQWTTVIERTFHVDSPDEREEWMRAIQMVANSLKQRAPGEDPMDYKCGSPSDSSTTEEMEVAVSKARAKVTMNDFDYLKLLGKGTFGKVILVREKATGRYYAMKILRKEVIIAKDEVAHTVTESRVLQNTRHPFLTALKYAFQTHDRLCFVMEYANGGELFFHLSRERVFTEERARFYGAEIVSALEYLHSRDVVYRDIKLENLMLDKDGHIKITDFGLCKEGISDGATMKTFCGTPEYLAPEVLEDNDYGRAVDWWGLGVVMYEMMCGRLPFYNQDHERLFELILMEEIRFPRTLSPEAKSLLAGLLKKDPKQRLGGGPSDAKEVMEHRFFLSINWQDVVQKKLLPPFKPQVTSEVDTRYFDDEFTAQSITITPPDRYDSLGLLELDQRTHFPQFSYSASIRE
Sequence of MAPK9 (human) (P45984 whole entry, looked up): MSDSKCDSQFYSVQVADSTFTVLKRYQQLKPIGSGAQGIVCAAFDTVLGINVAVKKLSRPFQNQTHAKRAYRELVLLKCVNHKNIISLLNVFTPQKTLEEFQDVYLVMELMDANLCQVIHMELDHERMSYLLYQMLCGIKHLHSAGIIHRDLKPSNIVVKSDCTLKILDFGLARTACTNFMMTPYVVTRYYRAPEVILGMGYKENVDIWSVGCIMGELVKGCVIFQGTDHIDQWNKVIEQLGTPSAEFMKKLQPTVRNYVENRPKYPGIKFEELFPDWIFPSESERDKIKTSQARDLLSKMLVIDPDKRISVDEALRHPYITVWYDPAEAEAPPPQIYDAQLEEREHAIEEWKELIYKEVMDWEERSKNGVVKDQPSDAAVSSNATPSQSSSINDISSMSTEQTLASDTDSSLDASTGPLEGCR
Sequence of AURKB (human) (Q96GD4 whole entry, looked up): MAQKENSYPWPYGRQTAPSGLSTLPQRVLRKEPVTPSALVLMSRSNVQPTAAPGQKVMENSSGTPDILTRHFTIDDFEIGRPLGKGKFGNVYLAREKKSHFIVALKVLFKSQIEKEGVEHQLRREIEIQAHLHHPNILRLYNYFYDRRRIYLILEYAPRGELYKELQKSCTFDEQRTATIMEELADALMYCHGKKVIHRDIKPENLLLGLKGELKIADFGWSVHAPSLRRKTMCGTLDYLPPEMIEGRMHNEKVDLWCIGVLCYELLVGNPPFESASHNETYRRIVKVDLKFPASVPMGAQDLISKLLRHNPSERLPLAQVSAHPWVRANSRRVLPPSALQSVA

SMILES | residual activity (PRKCA (human)) [%] | residual activity (MAPK11 (human)) [%] | residual activity (GSK3B (human)) [%] | residual activity (ROCK2 (human)) [%] | residual activity (AKT2 (human)) [%] | residual activity (RPS6KA5 KD1 KD2 (human)) [%] | residual activity (NEK7 (human)) [%] | residual activity (PAK7 (human)) [%] | residual activity (CSNK1D (human)) [%] | residual activity (CHEK2 (human)) [%] | residual activity (AURKB (human)) [%] | residual activity (MAPKAPK2 (human)) [%] | residual activity (MAPK12 (human)) [%] | residual activity (RPS6KA1 KD1 KD2 (human)) [%] | residual activity (MKNK1 (human)) [%] | residual activity (CDK2 CCNA2 (human)) [%] | residual activity (CaMK1 (human)) [%] | residual activity (MAPKAPK5 (human)) [%] | residual activity [1] [%] | residual activity (MAPK14 (human)) [%] | other results
CO[C@H]1CC2CC[C@@H](C)[C@@](O)(O2)C(=O)C(=O)N2CCCC[C@H]2C(=O)OC([C@H](C)C[C@@H]2CC[C@@H](O)[C@H](OC)C2)CC(=O)[C@H](C)/C=C(\C)[C@@H](O)[C@@H](OC)C(=O)[C@H](C)C[C@H](C)/C=C/C=C/C=C/1C (stereo not given in full) | 88 | 84 | 83 | 103 | 85 | 86 | 102 | 89 | 88 | 92 | 86 | 108 | 81 | 90 | 83 | 92 | 97 | 91 | 91 | 75 | residual activity (MELK (human)): 74%; residual activity (IKBKB (human)): 82%; residual activity (MAPK9 (human)): 81%; residual activity (PIM1 (human)): 91%; residual activity (RPS6KA3 KD1 KD2 (human)): 97%; residual activity (CSK (human)): 83%; residual activity [2]: 106%; residual activity (MAPK3 (human)): 100%; residual activity (MAPK15 (human)): 97%; residual activity (SRPK1 (human)): 84%; residual activity (PIM2 (human)): 117%; residual activity (BRSK2 (human)): 90%; residual activity (DYRK1A (human)): 91%; residual activity (PIM3 (human)): 88%; residual activity (PRKAA1 or PRKAA2 (rat)): 87%; residual activity (PLK1 (human)): 78%; residual activity (PAK6 (human)): 89%; residual activity [3]: 93%; residual activity (PRKCG (human)): 92%; residual activity (HIPK2 (human)): 93%
COC[C@H]1OC(=O)c2coc3c2[C@@]1(C)C1=C(C3=O)[C@@H]2CCC(=O)[C@@]2(C)C[C@H]1OC(C)=O | 68 | 97 | 65 | 99 | 90 | 85 | 100 | 72 | 94 | 90 | 83 | 125 | 94 | 86 | 81 | 95 | 97 | 69 | 97 | 117 | residual activity (MELK (human)): 61%; residual activity (IKBKB (human)): 96%; residual activity (MAPK9 (human)): 83%; residual activity (PIM1 (human)): 87%; residual activity (RPS6KA3 KD1 KD2 (human)): 90%; residual activity (CSK (human)): 73%; residual activity [2]: 95%; residual activity (MAPK3 (human)): 106%; residual activity (MAPK15 (human)): 98%; residual activity (SRPK1 (human)): 73%; residual activity (PIM2 (human)): 83%; residual activity (BRSK2 (human)): 80%; residual activity (DYRK1A (human)): 88%; residual activity (PIM3 (human)): 86%; residual activity (PRKAA1 or PRKAA2 (rat)): 88%; residual activity (PLK1 (human)): 64%; residual activity (PAK6 (human)): 86%; residual activity [3]: 86%; residual activity (PRKCG (human)): 84%; residual activity (HIPK2 (human)): 94%
